According to ChEMBL document CHEMBL4190384, “Design, synthesis and biological evaluation of substituted (+)-SG-1 derivatives as novel anti-HIV agents” (Bioorg Med Chem Lett, 2018):

Tests used:
[1] = test system: Human immunodeficiency virus 1; test: (§1) Resistance index, ratio of IC50 for antiviral activity against HIV1 virions containing reverse transcriptase Y181C mutant derived from HIV/[…] or HIV/HA virions infected 293T cells using human A549 cells as target cells to IC50 for antiviral activity against wild type HIV1 virions derived from HIV/[…] or HIV/HA virions infected 293T cells using human A549 cells as target cells; assay type: functional
[2] = test system: Human immunodeficiency virus 1; test: as §1, with “E138K/M184V” for “Y181C”; assay type: functional
A549 = test: Cytotoxicity against human A549 cells at 10 uM after 48 hrs by CellTiter 96 AQueous one solution cell proliferation assay; assay type: cell-based; settings: a549, 48 h
[3] = test system: Human immunodeficiency virus 1; test: (§2) Antiviral activity against HIV1 virions containing reverse transcriptase K103N mutant derived from HIV/VSG-G or HIV/HA virions infected 293T cells using human A549 cells as target cells assessed as inhibition of viral replication using compound pre-mixed virions followed by incubation with target cells for 24 hrs by luciferase reporter gene assay based defective HIV1 pseudoviral assay; assay type: functional, organism-based; settings: Human immunodeficiency virus 1, 24 h
[4] = test system: Human immunodeficiency virus 1; test: as §1, with “K103N” for “Y181C”; assay type: functional
[5] = test system: Human immunodeficiency virus 1; test: as §2, with “virions” for “virions containing reverse transcriptase K103N mutant”; assay type: functional, organism-based; settings: Human immunodeficiency virus 1, 24 h
[6] = test system: Human immunodeficiency virus 1; test: as §2, with “E138K/M184V” for “K103N”; assay type: functional, organism-based; settings: Human immunodeficiency virus 1, 24 h
[7] = test system: Human immunodeficiency virus 1; test: as §2, with “Y181C” for “K103N”; assay type: functional, organism-based; settings: Human immunodeficiency virus 1, 24 h
[8] = test system: Human immunodeficiency virus 1; test: Antiviral activity against human HIV1 by VSV-G/HIV1 infection assay; assay type: functional, organism-based

SMILES | Ratio IC50 [1] | Ratio IC50 [2] | Activity (A549) | IC50 [3] [nM] | Ratio IC50 [4] | IC50 [5] [nM] | IC50 [6] [nM] | IC50 [7] [nM] | IC50 [8] [nM]
COc1cc2c(cc1OC)[C@H](c1cc(OC)c(OC)c(OC)c1)[C@@H](C)CC2 | >111 | 2 | Non-Toxic | 150 | 1.7 | 90 | 180 | > 10000 | –
COc1cc2c(cc1OC)N(c1cc(OC)c(OC)c(OC)c1)CCC2 | – | – | Non-Toxic | – | – | 4960 | – | – | –
COc1ccc([C@H]2c3cc(OC)c(OC)cc3C[C@H](C)[C@@H]2C)cc1OC | >11.6 | 4.7 | Non-Toxic | 1380 | 1.6 | 860 | 4020 | > 10000 | 1070
COc1ccc([C@H]2c3cc(OC)c(OC)cc3C[C@@H]2C)cc1OC | – | – | Non-Toxic | – | – | 4420 | – | – | –
COc1ccc([C@@H]2c3cc(OC)c(OC)cc3C[C@H](C)[C@H]2C)cc1OC | – | – | Non-Toxic | – | – | > 10000 | – | – | –
COc1cc2c(cc1OC)[C@H](c1cc(OC)c(OC)c(OC)c1)[C@@H](C)C2 | – | – | Non-Toxic | – | – | 340 | – | – | –
COc1cc(CCC(=O)N2C(=O)OC[C@@H]2Cc2ccccc2)cc(OC)c1OC | – | – | Non-Toxic | – | – | > 10000 | – | – | –
COc1cc2c(cc1OC)[C@@H](c1ccc3c(c1)OCO3)[C@H](C)[C@@H](C)C2 | – | – | Non-Toxic | – | – | > 10000 | – | – | –
COc1cc([C@H]2c3c(cc(OC)c(OC)c3OC)C[C@H](C)[C@@H]2C)cc(OC)c1OC | >14.5 | 8.6 | Non-Toxic | 760 | 1.1 | 690 | 5910 | > 10000 | –
CO/N=C(\c1ccc(OC)c(OC)c1)c1cc(OC)c(OC)c(OC)c1 | – | – | Non-Toxic | – | – | > 10000 | – | – | –
COc1cc2c(cc1OC)[C@@H](c1cc(OC)c(OC)c(OC)c1)[C@H](C)CC2 | >9.8 | 7 | Non-Toxic | 1730 | 1.7 | 1020 | 7130 | > 10000 | –
COc1cc2c(cc1OC)[C@@H](c1cc(OC)c(OC)c(OC)c1)[C@H](C)[C@@H](C)C2 | – | – | Non-Toxic | – | – | > 10000 | – | – | –
COc1cc2c(cc1OC)[C@H](c1cc(OC)c(OC)c(OC)c1)[C@@H](C)[C@@H](C)C2 | 67.5 | 8.6 | Non-Toxic | 180 | 1.1 | 160 | 1380 | 10800 | –
COc1cc2c(cc1OC)N(c1cc(OC)c(OC)c(OC)c1)C(=O)CC2 | – | – | Non-Toxic | – | – | > 10000 | – | – | –
COc1ccc(/C(=N/O)c2cc(OC)c(OC)c(OC)c2)cc1OC | – | – | Non-Toxic | – | – | > 10000 | – | – | –
COc1ccc(C(=O)c2cc(OC)c(OC)c(OC)c2)cc1OC | – | – | Non-Toxic | – | – | > 10000 | – | – | –
CCC1CCc2cc(OC)c(OC)cc2N1c1cc(OC)c(OC)c(OC)c1 (racemic) | – | – | Non-Toxic | – | – | 720 | – | – | –
CCCC1CCc2cc(OC)c(OC)cc2N1c1cc(OC)c(OC)c(OC)c1 (racemic) | – | – | Non-Toxic | – | – | 1280 | – | – | –
COc1cc2c(cc1OC)N(c1cc(OC)c(OC)c(OC)c1)C(C)CC2 (racemic) | >10.6 | 9.1 | Non-Toxic | 1400 | 1.5 | 940 | 8530 | > 10000 | –
COc1cc2c(cc1OC)C(c1cc(OC)c(OC)c(OC)c1)CCC2 (racemic) | – | – | Non-Toxic | – | – | 6710 | – | – | –
Nc1ccn([C@@H]2CS[C@H](CO)O2)c(=O)n1 [LAMIVUDINE] | – | >19.6 | – | – | – | 510 | > 10000 | – | –
Cc1ccnc2c1NC(=O)c1cccnc1N2C1CC1 [NEVIRAPINE] | 220 | 1.7 | – | 910 | 70 | 13 | 22 | 2860 | –
